{"source": "paper PMC12082688", "about": "“Temporal Distribution of Imidacloprid and Its Metabolites in Laying Hens: An Evaluation of the Potential Impact on Food Safety” (Journal of Agricultural and Food Chemistry, 2025)", "key": {"[1]": {"conditions": "cited from earlier work"}, "[2]": {"experiment": "Plasma concentration versus time profile after a single oral gavage dose, LC-MS/MS", "assay_type": "in vivo, Hy-line brown hens", "conditions": "for time until plasma concentration below the limit of quantitation: 1 mg/kg single oral gavage, LOQ 0.5 ng/mL; for Tmax: female, Hy-line brown, in vivo", "description": "(§1) Seventy-five, 61-week-old, Hy-line brown hens weighing 1.6–2.4 kg were housed in individual, 22” × 24” × 16” cages with nest box curtains and scratch pads, on two levels. Hens were acclimatized for 1 week on a 16-h light:8-h dark cycle. A wall exhaust fan maintained the temperature between 17–19 °C. A standard layer diet containing corn and soybean meal, 4.9% calcium and 16.5% protein was available ad libitum (Webberville Feed & Grain Co., Webberville, MI, USA). Water was available ad libitum. Hens were weighed and randomly assigned to one of three treatment groups (n = 5 hens/group) that received imidacloprid at 1 and 10% of a reported LD50 for chickens corresponding to 1 and 10 mg/kg of IMI or a placebo treatment (Lafeber Nutristart 1:3 in water; Lafeber Co., Cornell, Il, USA).[14] Birds were fasted overnight. Prior to gavage, crops were palpated to ensure that they were empty.\n(§2) Analytical grade (active) imidacloprid powder (ChemService, West Chester, PA, USA) was dissolved in ethanol (10% v/v), mixed with corn oil, and then further dissolved in Lafeber Nutristart (1:3 in water; Lafeber Co., Cornell, Il, USA) to obtain final concentrations of 0.8 or 0.08 mg/mL.[8],[14] Treatments were prepared on the morning of administration, protected from light, kept on ice, and mixed thoroughly prior to administration. The concentrations and purity of IMI were verified before the start of the trial. IMI was administered by oral gavage using a 60-cc syringe and a 10 Fr × 16 in. red rubber urethral feeding catheter. After each administration, the catheter was flushed with 5 mL of water. Birds received a similar volume of treatment or placebo (20–30 mL).\n(§3) Approximately 2–3 mL of blood was sampled from the brachial vein at 1, 2, 4, 24, 48, and 168 h postexposure, transferred into 2 mL EDTA tubes, sat at room temperature for 1–2 h, centrifuged at 1200g for 10 min, plasma was transferred into microcentrifuge tubes, and samples were kept at 4 °C until analysis within 1 week of study completion. Birds were humanely euthanized by cervical dislocation (n = 5 hens/treatment/time point). At 1, 4, 24, 48, and 168 h postexposure, approximately 1.0 g from the left pectoralis major, left quadriceps, left liver lobe, coelomic fat pad, spleen, right cranial and middle kidney lobes, and brain (cerebrum, optic lobes, cerebellum, brainstem) were collected, placed in Whirl-Pak sample bags (Nasco Sampling LLC, Madison, WI, USA), and kept at −20 °C until analysis. Whole eggs that were spontaneously laid or near completion in the shell gland were collected at 24 (n = 27), 48 (n = 24), 72 (n = 13), and 168 h (n = 12) after treatment and cracked in half, and yolk and albumen were kept in screw top specimen containers at −20 °C until analysis. […] Doses and time points were based on similar studies done in chickens[8] and Japanese Quail.[7] All animal procedures were approved by the Institutional Animal Care and Use Committee (IACUC) at MSU no. PROTO202300371.\nNeonicotinoids were extracted from 200 μL of plasma, which was added to a test tube with […] of 0.5 ng/mL ISTD in acetonitrile. The mixture was vortexed for 40 s until well-mixed and then centrifuged for 5 min at 3000g. The supernatant was removed and filtered through a 0.2 μm PTFE membrane filter into an autosampler vial for LC-MS/MS analysis.\nAnalysis was performed with a liquid chromatographic-tandem mass spectrometer, an AB Sciex 6500+ ESI-MS/MS (SCIEX, Framingham, MA, USA) interfaced to a Shimadzu LC (Shimadzu Corp, Kyoto, Japan). Chromatography was achieved using the Kinetex F5:2.6 μm (100 mm × 3 mm) column (Phenomenex, Torrance, CA, USA). The column temperature was maintained at 40 °C with a column heater. Injection volume was 10 μL. The mobile phase consisted of 0.1% formic acid in Milli-Q water (mobile phase A) and 0.1% formic acid in acetonitrile (mobile phase B) at a flow rate of 0.5 mL/min. […]"}, "[3]": {"experiment": "Distribution of IMI and metabolites in tissues, eggs and feces after a single oral gavage dose, LC-MS/MS", "assay_type": "in vivo", "conditions": "for metabolite abundance in tissues: 1 and 10 mg/kg IMI single oral gavage, all sampled tissues; for metabolite concentrations in eggs versus regulatory thresholds: eggs within 24 h postexposure to IMI", "description": "as §1, §2, §3\nTissues were prepared for analysis by sectioning 0.5 g of homogeneous tissue (free of connective and vascular tissue) and placing it in a 7 mL Precellys bead tissue homogenization tube. Egg yolk and albumin from individual eggs were homogenized with an Omni International (Kennesaw, GA, USA) 125/TM125-11 hand-held homogenizer with a stainless steel 7 mm generator probe. Similar to tissues, 0.5 g of egg homogenate was placed in a 7 mL Precellys bead tissue homogenization tube. Two milliliters of acetonitrile containing 1 ng/mL of ISTD was added. Tissues were homogenized at room temperature with a Precellys Evolution Homogenizer (Bertin Technologies, Montigny-Le-Bretonneux, France): Speed–4500g, Cycle 2 × 20 s with a 20 s pause between cycles. The homogenized tissues and egg were centrifuged at 5400g for 10 min to pellet solid material at the bottom of the tube. 250 μL of the clear top layer from each tube was transferred to an autosampler vial for LC-MS/MS analysis. […]"}, "layers": {"system": "layers", "conditions": "cited from earlier work"}, "[4]": {"experiment": "IMI equivalents (sum of IMI and 6-chloropyridinyl moiety metabolites) in poultry products versus CFR/EFSA tolerance", "set-up": "species or system Hy-line brown hens", "conditions": "in vivo", "text": "The specific absorption, distribution, metabolism, and excretion profile of IMI in laying hens and the presence of IMI and its metabolites in eggs are unknown. Therefore, the primary goal of this study was to evaluate food safety in the context of IMI’s temporal distribution and metabolite profile. To achieve this, IMI and its 6-chloropyridinyl moiety-containing metabolites (IMI-urea, IMI-olefin, desnitro-IMI, 5-OH-IMI, and 6-chloronicotinic acid) were quantitatively measured in blood, tissue, feces, and eggs following a single subclinical dose over time. These concentrations were measured using a liquid chromatography tandem mass spectrometry (LC-MS/MS) method and compared with tolerances established in the Code of Federal Regulations (CFR) and Article 12 of the European Food Safety Authority (EFSA) Regulation No 396/2005.[12],[13]\nas §3\nTissues were prepared for analysis by sectioning 0.5 g of homogeneous tissue (free of connective and vascular tissue) and placing it in a 7 mL Precellys bead tissue homogenization tube. Egg yolk and albumin from individual eggs were homogenized with an Omni International (Kennesaw, GA, USA) 125/TM125-11 hand-held homogenizer with a stainless steel 7 mm generator probe. Similar to tissues, 0.5 g of egg homogenate was placed in a 7 mL Precellys bead tissue homogenization tube. Two milliliters of acetonitrile containing 1 ng/mL of ISTD was added. […]"}, "birds": {"system": "birds", "set-up": "method as in PMID 32274821", "conditions": "cited from earlier work"}, "[5]": {"conditions": "in vivo, po; cited from earlier work"}, "chickens": {"system": "chickens", "conditions": "in vivo; cited from earlier work"}, "[6]": {"conditions": "in vivo; cited from earlier work"}, "laying hens": {"system": "laying hens", "experiment": "Response to treatment: clinical monitoring, post-mortem examination and daily egg production", "assay_type": "in vivo", "conditions": "1 or 10 mg/kg single oral gavage", "description": "as §1\nAnalytical grade (active) imidacloprid powder (ChemService, West Chester, PA, USA) was dissolved in ethanol (10% v/v), mixed with corn oil, and then further dissolved in Lafeber Nutristart (1:3 in water; Lafeber Co., Cornell, Il, USA) to obtain final concentrations of 0.8 or 0.08 mg/mL.[8],[14] Treatments were prepared on the morning of administration, protected from light, kept on ice, and mixed thoroughly prior to administration. […]\nBirds were closely monitored postgavage for any adverse reactions. […]"}, "[7]": {"conditions": "domestic chickens, 15 days after the last exposure following daily exposure for 7 days"}, "[8]": {"conditions": "10 mg/kg single oral gavage, read-out: time of peak concentration in plasma"}}, "note": "“Also recorded” adds a separate entry of the source. Like-named read-outs stand apart in the source and are kept apart here."}
{"compound": "O=[N+]([O-])/N=C1\\NCC(O)N1Cc1ccc(Cl)nc1", "note": "(stereo not shown) [5-OH-IMI, 5-hydroxyimidacloprid]", "values": [{"measurement": "presence in feces, liver, muscle, spleen, kidney and brain", "setting": "[1]; [7]", "value": "detected"}, {"measurement": "time until plasma concentration below the limit of quantitation", "setting": "[2]", "value": "≤ 24", "unit": "h"}, {"measurement": "Tmax", "setting": "[2]; [8]", "value": 4, "unit": "h"}, {"measurement": "metabolite abundance in tissues", "setting": "[3]", "value": "metabolized predominantly to 5-OH-IMI"}, {"measurement": "metabolite concentrations in eggs versus regulatory thresholds", "setting": "[3]", "value": "exceeding current regulatory thresholds"}]}
{"compound": "O=C(O)c1ccc(O)nc1", "note": "[6-OH-NA, 6-hydroxy nicotinic acid]", "values": [{"measurement": "presence in fecal matter", "setting": "[3]; feces collected after IMI single oral gavage", "value": "evidence in fecal matter for the formation; also recorded: presence of 6-OH-NA in fecal matter collected at 24 and 48 h post treatment"}]}
{"compound": "O=[N+]([O-])Nc1nccn1Cc1ccc(Cl)nc1", "note": "[IMI-olefin, imidacloprid-olefin]", "values": [{"measurement": "presence in feces, liver, muscle, spleen, kidney and brain", "setting": "[1]; [7]", "value": "detected"}, {"measurement": "time until plasma concentration below the limit of quantitation", "setting": "[2]", "value": "≤ 24", "unit": "h"}, {"measurement": "time of peak concentration in plasma", "setting": "[2]; 10 mg/kg single oral gavage", "value": 4, "unit": "h"}, {"measurement": "metabolite abundance in tissues", "setting": "[3]", "value": "more abundant metabolite observed in most tissues except in the kidney where it was notably absent"}, {"measurement": "metabolite concentrations in eggs versus regulatory thresholds", "setting": "[3]", "value": "exceeding current regulatory thresholds"}]}
{"compound": "O=C1NCCN1Cc1ccc(Cl)nc1", "note": "[IMI-urea, imidacloprid urea]", "values": [{"measurement": "time of peak concentration in plasma", "setting": "[2]; 10 mg/kg single oral gavage", "value": 4, "unit": "h"}, {"measurement": "presence of metabolite in sample types", "setting": "[3]; 10 mg/kg IMI single oral gavage", "value": "present in the 10 mg/kg treatment group for all sample types except in the liver"}, {"measurement": "metabolite abundance in tissues", "setting": "[3]", "value": "equally abundant in kidney with 5-OH-IMI"}, {"measurement": "metabolite concentrations in eggs versus regulatory thresholds", "setting": "[3]", "value": "exceeding current regulatory thresholds"}]}
{"compound": "O=[N+]([O-])NC1=NCCN1Cc1ccc(Cl)nc1", "note": "[IMI]", "values": [{"measurement": "LD50", "setting": "layers", "value": 104.1, "unit": "mg/kg"}, {"measurement": "presence in feces, liver, muscle, spleen, kidney and brain", "setting": "[1]; in vivo", "value": "detected"}, {"measurement": "IMI equivalents in adipose tissue versus 50 ppb (50 ng/g) threshold", "setting": "[4]", "value": "no animal exceeded"}, {"measurement": "IMI equivalents in brain, liver, spleen and kidney versus threshold (50 ng/g)", "setting": "[4]", "value": "surpassed the threshold for most animals"}, {"measurement": "IMI equivalents in liver and spleen versus threshold (50 ng/g)", "setting": "[4]", "value": "remained in excess of the threshold for several animals"}, {"measurement": "eggs with IMI equivalents exceeding the CFR regulatory threshold of 20 ppb (20 ng/g)", "setting": "[4]", "value": "6 of 10"}, {"measurement": "clinical signs", "setting": "birds; 10 mg/kg IMI administration", "value": "moderate sedation occurred within minutes"}, {"measurement": "clinical signs", "setting": "birds; birds given 1 mg/kg", "value": "no outward clinical signs"}, {"measurement": "Tmax", "setting": "[2]; po, 1 mg/kg", "value": "≤ 1", "unit": "h"}, {"measurement": "Tmax", "setting": "[2]; po, 10 mg/kg", "value": 4, "unit": "h"}, {"measurement": "residues in liver, pectoral muscle, brain and kidney", "setting": "[5]", "value": "detected"}, {"measurement": "adjusted effective dose (ED50) for neurologic signs", "setting": "chickens", "value": 11.2, "unit": "mg/kg/day"}, {"measurement": "time of absorption into the bloodstream", "setting": "[6]", "value": "≤ 1", "unit": "h"}, {"measurement": "time of excretion in feces", "setting": "[6]", "value": "≤ 24", "unit": "h"}, {"measurement": "gross lesions at post-mortem examination", "setting": "laying hens", "value": "no gross lesions were observed"}]}
{"compound": "N=C1NCCN1Cc1ccc(Cl)nc1", "note": "[desnitro-IMI, desnitro imidacloprid]", "values": [{"measurement": "Tmax", "setting": "[2]; [8]", "value": 4, "unit": "h"}]}
